From patent US6436705B1, “Shape stabilized erythrocytes” (The United States of America as represented by the …, priority 1997, dated 2002)
Where two headings read alike, the source gives them in different places.

Key:
Human erythrocytes = experiment: cells; type: cell-based
Procedure: Packed human erythrocytes from healthy donors were obtained from the National Naval Medical Center (Bethesda, Md.) within 48 h of donation and used within 7 days. Packed erythrocytes were washed twice in phosphate buffer solution (PBS) then re-suspended in PBS (1 vol PBS:1 vol packed cells). The erythrocyte suspension (100 ml) was placed on ice and carbon monoxide (CO) was bubbled through it for 2 hours. Saturation with CO (100%) was achieved under these conditions as detected with a CO-oximeter. Erythrocytes were packed and cross-linked with DTBP at 4° C. for different incubation times (from 1 to 24 h; 9 vol cross-linking solution: 1 vol packed cells). The cross-linking solution was prepared by dissolving DTBP in PBS (pH 7.8). After incubation DTBP was removed by repeated washing of the red cells in PBS (IEC Centra centrifuge for 10 min at 1008×g). Reversal of the cross-linking was carried out at room temperature with the reducing agent dithioerythritol (DTT) at a concentration of 10 mM in PBS (9 vol reducing solution: 1 vol packed cells) for 20 min or as indicated in the figure legends. DTT was removed by repeated washing of the red cells in PBS (IEC Centra centrifuge for 10 min at 1008×g). CO-treatment was reversed at room temperature using a hollow fiber membrane oxygenator model Capiox 308. Erythrocytes were processed through the oxygenator for 1 h. Saturation with oxygen (92%) was reached as detected with a CO-oximeter.
Erythrocytes were cross-linked with DTBP at different concentrations for different incubation times. 1 ml of the erythrocyte suspension was taken out at regular incubation times centrifuged and DTBP was removed (Eppendorf centrifuge for 3 min at 3000×g). Distilled water (1 ml) was added to the remaining packed cells. After 30 min the cells were again centrifugated (Eppendorf centrifuge for 3 min at 3000×g), and the supernatants were processed for hemolysis measurements. For determination of hemolysis the cyanmethemoglobin method was applied (see Brown in “Hematology: principles and procedures” pp. 29-31 (Lea and Febiger, eds., 1984)). Absorbance was measured at 540 nm and percent hemolysis was determined by Equation (1), supra, where the control sample was lysed in distilled water.
Erythrocyte stability in distilled water was tested after crosslinking reversal as well. Red blood cells were first cross-linked with DTBP then treated with DTT at different concentrations (from 1 to 10 mM) for different incubation times (from 5 to 20 min). Hemolysis in distilled water was measured as described above.

Red blood cells = experiment: Metabolic viability: ATP content of red blood cells over time; type: cell-based, human
Procedure: The metabolic viability of cross-linked cells was assayed by monitoring the production and depletion of ATP over time. DTBP cells were cross-linked in 5 mM DTBP 150 mM glucose for 5 hours at 4° C. The cells were then washed 3 times and incubated in 150 mM glucose for an additional 19 hrs. After washing to remove the glucose the cells were incubated at 4° C. in PBS for 72 hrs before being returned to 150 mM glucose for the final 24 hr incubation. At each time point cells were removed, washed, and spectrophotometrically assayed for ATP as described in the text. The glucose controls were cells treated in the same manor but without crosslinking, and the control cells are cells without exposure to glucose.

Red cells = experiment: Oxygen carrying ability (oxygen content by CO-oximeter); type: cell-based, human; settings: CO-treated
Procedure: A semi-quantitative measure of oxygen carrying ability by DTBP cross-linked and reversed cells was performed. Red cells cross linked with 5 mM DTBP for different incubation times and cells reversed with DTT (see above) were processed through a membrane oxygenator to replace CO with oxygen. Oxygen saturation of the cells was measured using a CO-oximeter. After the oxygenation, cells were subjected to deoxygenation under a stream of nitrogen for 30 min. Percentage oxygen was measured again by the CO-oximeter. Oxygen binding and releasing properties for cross-linked, reversed and normal cells were compared.
We measured oxygen content (Vol%O2) of cells subjected to cross-linking and reversal with a CO-oximeter 282. […] CO-treated and cross-linked cells with 5 mM DTBP for 5 h, which underwent re-oxygenation in the membrane oxygenator had oxygen content of 7.3 Vol%O2.

[1] = Homo sapiens, Erythrocyte, 4 h, read-out: hemolysis in distilled water

`COC(=N)CCSSCCC(=N)OC` [DTBP, Dimethyl-3,3′-dithiobispropionimidate] was tested, and the “hemolysis in distilled water” value (Human erythrocytes; 1 or 3 mM DTBP, even after prolonged incubation times) was “did not produce cells stable to hemolysis in distilled water”, the hemolysis at 5000 µM (Human erythrocytes; Homo sapiens, Erythrocyte, 3 h, read-out: hemolysis in distilled water) was 100% and the hemolysis at 5000 µM (Human erythrocytes; [1]) was 88%. The hemolysis at 7000 µM (Human erythrocytes; [1]) was 21%, the hemolysis at 10000 µM (Human erythrocytes; [1]) was 0% and the hemolysis at 5000 µM (Human erythrocytes; Homo sapiens, Erythrocyte, 5 h, read-out: hemolysis in distilled water) was 67%. It also gave a hemolysis at 5000 µM (Human erythrocytes; Homo sapiens, Erythrocyte, 7 h, read-out: hemolysis after the treatment with DTT) of 35%, a hemolysis at 5000 µM (Human erythrocytes; Homo sapiens, Erythrocyte, 7 h, read-out: hemolysis in distilled water) of 45% and a hemolysis at 5000 µM (Human erythrocytes; Homo sapiens, Erythrocyte, 24 h, read-out: hemolysis after the treatment with DTT) of 100%. The hemolysis at 5000 µM (Human erythrocytes; Homo sapiens, Erythrocyte, 24 h, read-out: hemolysis in distilled water) was 10%, the “stability in the presence of the reducing agent (DTT)” value (Human erythrocytes; cells with lower degree of stabilization (5 mM DTBP 5 h, 67% lysis in water)) was “stable in the presence of the reducing agent” and the “ATP Content” value (Red blood cells; 5 mM DTBP 5 h, 72 hrs in PBS) was 51.7 µmol/dL. The ATP (Red blood cells; 5 mM DTBP 5 h, after 72 hours in PBS at 4° C.) was 51.7 µmol/dL, the “ATP Content” value (Red blood cells; 5 mM DTBP 5 h, final 24 hrs in glucose after PBS) was 51.5 µmol/dL and the “ATP Content” value (Red blood cells; 5 mM DTBP 5 h at 4° C., 24 hrs in glucose (first)) was 76.1 µmol/dL. The oxygen content (Red cells; 5 mM DTBP 5 h, re-oxygenated then deoxygenated with nitrogen) was 2.9 Vol%O2 and the oxygen content (Red cells; 5 mM DTBP for 5 h, re-oxygenated in membrane oxygenator) was 7.3 Vol%O2.
